# Experimental data taken from patent US10829796B2, “Bacteria identification and antimicrobial susceptibility test” (priority 2015, dated 2020).
# Key:
# Format in all cases: cell-based
# Streptococcus uberis [1] = test: Antibiotic susceptibility testing (colour of media), spiked milk; settings: for Colour of media in each well: T~16 h, 37° C., bacteria samples 6d, plate configuration #3
# Staphylococcus aureus = test: as above; settings: for Colour of media: Tryptic Soy (70 ul composition 2c), bacteria sample 5c; for Colour of media in each well: T~16 h, 37° C., plate configuration #3
# Escherichia coli = test: as above; settings: for Colour of media in each well: 37° C., plate configuration #3
# Streptococcus uberis [2] = test: Group D Streptococci identification, esculin/ferric citrate in TSB (blackening = growth), bacteria in milk; settings: TSB containing 0.5% esculin and 0.25% ferric citrate + 80 uL spiked milk; 100 ug/ml aztreonam and/or 0.5 mg/mL phenol red
# Protocol: By way of illustration, the same experiment was conducted as above, only this time using clinical milk samples obtained from a bovine animal suspect of being infected with mastitis.
# However, Applicant has discovered that increased amounts of esculin and ferric citrate may be used in milk derived clinical samples. For example, at concentrations of at least 2% esculin and 1% ferric citrate, the growth of Streptococcus uberis is not inhibited.
# Note, in the experiments above, the clinical sample tested was milk obtained from a bovine animal suspected of being infected by mastitis. If a non-milk clinical sample were to be tested, then inclusion of a stabilizing agent (e.g. milk in the form of a liquid or powder) would be required in order to suppress the growth inhibitory effect of esculin and ferric citrate at the higher concentrations used according to this invention.
# Applicant further discovered that TSB containing 0.5% esculin and 0.25% ferric citrate and 80 uL of spiked Streptococcus uberis milk sample which also contained 100 ug/ml aztreonam concentration (antibiotic which has activity against many gram-bacteria such as E. coli) and/or in combination with 0.5 mg/mL phenol red led to easy detectable colour changes. No inhibition of Streptococcus uberis due to phenol red or aztreonam was detected.
# [3] = bacteria sample 6d 4 μl + Composition 27 1 μl + drug solution (100 μg Aztreonam per ml water) 0.5 μl
# [4] = bacteria sample 6d 8 μl + Composition 27 2 μl + drug solution (100 μg Aztreonam per ml water) 1 μl
# [5] = bacteria sample 6d 20 μl + Composition 27 5 μl + drug solution (100 μg Aztreonam per ml water) 2.5 μl
# [6] = bacteria sample 6d 40 μl + Composition 27 10 μl + drug solution (100 μg Aztreonam per ml water) 5 μl
# [7] = bacteria sample 6d 80 μl + Composition 27 20 μl + drug solution (100 μg Aztreonam per ml water) 10 μl
# [8] = bacteria sample 6d 160 μl + Composition 27 40 μl + drug solution (100 μg Aztreonam per ml water) 20 μl
# [9] = bacteria sample 4d 4 μl + Composition 27 1 μl + drug solution (100 μg Aztreonam per ml water) 0.5 μl
# [10] = bacteria sample 4d 8 μl + Composition 27 2 μl + drug solution (100 μg Aztreonam per ml water) 1 μl
# [11] = bacteria sample 4d 20 μl + Composition 27 5 μl + drug solution (100 μg Aztreonam per ml water) 2.5 μl
# [12] = bacteria sample 4d 40 μl + Composition 27 10 μl + drug solution (100 μg Aztreonam per ml water) 5 μl
# [13] = bacteria sample 4d 80 μl + Composition 27 20 μl + drug solution (100 μg Aztreonam per ml water) 10 μl
# [14] = bacteria sample 4d 160 μl + Composition 27 40 μl + drug solution (100 μg Aztreonam per ml water) 20 μl
structure (smiles),measurement,setting,value
C[C@H]1[C@H](NC(=O)/C(=N\OC(C)(C)C(=O)O)c2csc(N)n2)C(=O)N1S(=O)(=O)O [aztreonam],Colour of media in each well,Streptococcus uberis [1]; Aztreonam 0.001 μg/ml,yellow
same,Colour of media in each well,Streptococcus uberis [1]; Aztreonam 0.01 μg/ml,yellow
same,Colour of media in each well,Streptococcus uberis [1]; Aztreonam 0.1 μg/ml,yellow
same,Colour of media in each well,Streptococcus uberis [1]; Aztreonam 1 μg/ml,yellow
same,Colour of media in each well,Streptococcus uberis [1]; Aztreonam 10 μg/ml,yellow
same,Colour of media after 24 hours incubation at 37° C.,Streptococcus uberis [1]; [3],Black
same,Colour of media prior incubation,Streptococcus uberis [1]; [3],Red
same,Colour of media after 24 hours incubation at 37° C.,Streptococcus uberis [1]; [4],Black
same,Colour of media prior incubation,Streptococcus uberis [1]; [4],Red
same,Colour of media after 24 hours incubation at 37° C.,Streptococcus uberis [1]; [5],Black
same,Colour of media prior incubation,Streptococcus uberis [1]; [5],Red
same,Colour of media after 24 hours incubation at 37° C.,Streptococcus uberis [1]; [6],Black
same,Colour of media prior incubation,Streptococcus uberis [1]; [6],Red
same,Colour of media after 24 hours incubation at 37° C.,Streptococcus uberis [1]; [7],Black
same,Colour of media prior incubation,Streptococcus uberis [1]; [7],Red
same,Colour of media after 24 hours incubation at 37° C.,Streptococcus uberis [1]; [8],Black
same,Colour of media prior incubation,Streptococcus uberis [1]; [8],Red
same,Colour of media,"Staphylococcus aureus; T = 0 hours (pre incubation), drug 0.01 μg/ml",red
same,Colour of media,"Staphylococcus aureus; T = 0 hours (pre incubation), drug 0.05 μg/ml",red
same,Colour of media,"Staphylococcus aureus; T = 0 hours (pre incubation), drug 0.1 μg/ml",red
same,Colour of media,"Staphylococcus aureus; T = 0 hours (pre incubation), drug 0.5 μg/ml",red
same,Colour of media,"Staphylococcus aureus; T = 0 hours (pre incubation), drug 1 μg/ml",red
same,Colour of media,"Staphylococcus aureus; T = 0 hours (pre incubation), drug 5 μg/ml",red
same,Colour of media,"Staphylococcus aureus; T = 0 hours (pre incubation), drug 10 μg/ml",red
same,Colour of media,"Staphylococcus aureus; T = 0 hours (pre incubation), drug 50 μg/ml",red
same,Colour of media,"Staphylococcus aureus; T = 0 hours (pre incubation), drug 100 μg/ml",red
same,Colour of media,"Staphylococcus aureus; T = 0 hours (pre incubation), drug 500 μg/ml",red
same,Colour of media,"Staphylococcus aureus; T = 15-24 h at 35° C., drug 0.01 μg/ml",yellow
same,Colour of media,"Staphylococcus aureus; T = 15-24 h at 35° C., drug 0.05 μg/ml",yellow
same,Colour of media,"Staphylococcus aureus; T = 15-24 h at 35° C., drug 0.1 μg/ml",yellow
same,Colour of media,"Staphylococcus aureus; T = 15-24 h at 35° C., drug 0.5 μg/ml",yellow
same,Colour of media,"Staphylococcus aureus; T = 15-24 h at 35° C., drug 1 μg/ml",yellow
same,Colour of media,"Staphylococcus aureus; T = 15-24 h at 35° C., drug 5 μg/ml",yellow
same,Colour of media,"Staphylococcus aureus; T = 15-24 h at 35° C., drug 10 μg/ml",yellow
same,Colour of media,"Staphylococcus aureus; T = 15-24 h at 35° C., drug 50 μg/ml",yellow
same,Colour of media,"Staphylococcus aureus; T = 15-24 h at 35° C., drug 100 μg/ml",yellow
same,Colour of media,"Staphylococcus aureus; T = 15-24 h at 35° C., drug 500 μg/ml",yellow
same,Colour of media in each well,"Staphylococcus aureus; bacteria samples 5c, Aztreonam 0.001 μg/ml",red
same,Colour of media in each well,"Staphylococcus aureus; bacteria samples 5c, Aztreonam 0.01 μg/ml",yellow
same,Colour of media in each well,"Staphylococcus aureus; bacteria samples 5c, Aztreonam 0.1 μg/ml",yellow
same,Colour of media in each well,"Staphylococcus aureus; bacteria samples 5c, Aztreonam 1 μg/ml",yellow
same,Colour of media in each well,"Staphylococcus aureus; bacteria samples 5c, Aztreonam 10 μg/ml",yellow
same,Colour of media in each well,"Staphylococcus aureus; bacteria samples 5e, Aztreonam 0.001 μg/ml",yellow
same,Colour of media in each well,"Staphylococcus aureus; bacteria samples 5e, Aztreonam 0.01 μg/ml",yellow
same,Colour of media in each well,"Staphylococcus aureus; bacteria samples 5e, Aztreonam 0.1 μg/ml",yellow
same,Colour of media in each well,"Staphylococcus aureus; bacteria samples 5e, Aztreonam 1 μg/ml",yellow
same,Colour of media in each well,"Staphylococcus aureus; bacteria samples 5e, Aztreonam 10 μg/ml",yellow
same,Colour of media in each well,"Escherichia coli; T~16 h, bacteria samples 4c, Aztreonam 0.001 μg/ml",yellow
same,Colour of media in each well,"Escherichia coli; T~16 h, bacteria samples 4c, Aztreonam 0.01 μg/ml",yellow
same,Colour of media in each well,"Escherichia coli; T~16 h, bacteria samples 4c, Aztreonam 0.1 μg/ml",yellow
same,Colour of media in each well,"Escherichia coli; T~16 h, bacteria samples 4c, Aztreonam 1 μg/ml",yellow
same,Colour of media in each well,"Escherichia coli; T~16 h, bacteria samples 4c, Aztreonam 10 μg/ml",yellow
same,Colour of media after 24 hours incubation at 37° C.,Escherichia coli; [9],Red
same,Colour of media prior incubation,Escherichia coli; [9],Red
same,Colour of media after 24 hours incubation at 37° C.,Escherichia coli; [10],Red
same,Colour of media prior incubation,Escherichia coli; [10],Red
same,Colour of media after 24 hours incubation at 37° C.,Escherichia coli; [11],Red
same,Colour of media prior incubation,Escherichia coli; [11],Red
same,Colour of media after 24 hours incubation at 37° C.,Escherichia coli; [12],Red
same,Colour of media prior incubation,Escherichia coli; [12],Red
same,Colour of media after 24 hours incubation at 37° C.,Escherichia coli; [13],Red
same,Colour of media prior incubation,Escherichia coli; [13],Red
same,Colour of media after 24 hours incubation at 37° C.,Escherichia coli; [14],Red
same,Colour of media prior incubation,Escherichia coli; [14],Red
same,Colour of media in each well,"Escherichia coli; t~16 h, bacteria samples 4e, Aztreonam 0.001 μg/ml",yellow
same,Colour of media in each well,"Escherichia coli; t~16 h, bacteria samples 4e, Aztreonam 0.01 μg/ml",yellow
same,Colour of media in each well,"Escherichia coli; t~16 h, bacteria samples 4e, Aztreonam 0.1 μg/ml",yellow
same,Colour of media in each well,"Escherichia coli; t~16 h, bacteria samples 4e, Aztreonam 1 μg/ml",red
same,Colour of media in each well,"Escherichia coli; t~16 h, bacteria samples 4e, Aztreonam 10 μg/ml",red
same,Inhibition of Streptococcus uberis,Streptococcus uberis [2],No inhibition
